± gives the expanded uncertainty stated by the source.
Test: xn = mol fraction of the nth substance listed
Conditions: 85 kPa, Liquid; for viscosity: Concentric cylinders viscometry; for mass density: Vibrating tube method

CCC(C)O (centres undefined) [butan-2-ol] + CCCO
Conditions | mass density [kg/m3] | viscosity [mPa·s]
293.15 K, x1 = 0.0818 | 804.1 ± 1 | 2.323 ± 0.14
293.15 K, x1 = 0.1601 | 804.6 ± 1 | 2.428 ± 0.15
293.15 K, x1 = 0.2399 | 805 ± 1 | 2.54 ± 0.15
293.15 K, x1 = 0.3499 | 805.5 ± 1 | 2.702 ± 0.16
293.15 K, x1 = 0.4399 | 805.8 ± 1 | 2.838 ± 0.17
293.15 K, x1 = 0.56 | 806 ± 1 | 3.023 ± 0.18
293.15 K, x1 = 0.6515 | 806.1 ± 1 | 3.166 ± 0.19
293.15 K, x1 = 0.7385 | 806.2 ± 1 | 3.304 ± 0.2
293.15 K, x1 = 0.85 | 806.3 ± 1 | 3.486 ± 0.21
293.15 K, x1 = 0.9407 | 806.3 ± 1 | 3.639 ± 0.22
293.15 K, x1 = 1 | 806.2 ± 1 | 3.743 ± 0.23
298.15 K, x1 = 0.0818 | 800.1 ± 1 | 2.047 ± 0.12
298.15 K, x1 = 0.1601 | 800.6 ± 1 | 2.126 ± 0.13
298.15 K, x1 = 0.2399 | 801 ± 1 | 2.211 ± 0.13
298.15 K, x1 = 0.3499 | 801.5 ± 1 | 2.331 ± 0.14
298.15 K, x1 = 0.4399 | 801.8 ± 1 | 2.432 ± 0.15
298.15 K, x1 = 0.56 | 802 ± 1 | 2.57 ± 0.15
298.15 K, x1 = 0.6515 | 802.1 ± 1 | 2.676 ± 0.16
298.15 K, x1 = 0.7385 | 802.2 ± 1 | 2.778 ± 0.17
298.15 K, x1 = 0.85 | 802.2 ± 1 | 2.913 ± 0.18
298.15 K, x1 = 0.9407 | 802.1 ± 1 | 3.025 ± 0.18
298.15 K, x1 = 1 | 802 ± 1 | 3.101 ± 0.19
303.15 K, x1 = 0.0818 | 796.1 ± 1 | 1.824 ± 0.11
303.15 K, x1 = 0.1601 | 796.7 ± 1 | 1.893 ± 0.11
303.15 K, x1 = 0.2399 | 797.1 ± 1 | 1.962 ± 0.12
303.15 K, x1 = 0.3499 | 797.6 ± 1 | 2.057 ± 0.12
303.15 K, x1 = 0.4399 | 797.9 ± 1 | 2.134 ± 0.13
303.15 K, x1 = 0.56 | 798.1 ± 1 | 2.228 ± 0.14
303.15 K, x1 = 0.6515 | 798.2 ± 1 | 2.31 ± 0.14
303.15 K, x1 = 0.7385 | 798.2 ± 1 | 2.38 ± 0.14
303.15 K, x1 = 0.85 | 798.2 ± 1 | 2.466 ± 0.15
303.15 K, x1 = 0.9407 | 798.1 ± 1 | 2.536 ± 0.15
303.15 K, x1 = 1 | 797.9 ± 1 | 2.579 ± 0.16
308.15 K, x1 = 0.0818 | 792.1 ± 1 | 1.619 ± 0.098
308.15 K, x1 = 0.1601 | 792.7 ± 1 | 1.672 ± 0.1
308.15 K, x1 = 0.2399 | 793.1 ± 1 | 1.724 ± 0.1
308.15 K, x1 = 0.3499 | 793.6 ± 1 | 1.795 ± 0.11
308.15 K, x1 = 0.4399 | 793.8 ± 1 | 1.851 ± 0.11
308.15 K, x1 = 0.56 | 794 ± 1 | 1.925 ± 0.12
308.15 K, x1 = 0.6515 | 794.1 ± 1 | 1.98 ± 0.12
308.15 K, x1 = 0.7385 | 794.1 ± 1 | 2.03 ± 0.12
308.15 K, x1 = 0.85 | 794 ± 1 | 2.089 ± 0.13
308.15 K, x1 = 0.9407 | 793.8 ± 1 | 2.135 ± 0.13
308.15 K, x1 = 1 | 793.6 ± 1 | 2.162 ± 0.13
313.15 K, x1 = 0.0818 | 788.1 ± 1 | 1.444 ± 0.087
313.15 K, x1 = 0.1601 | 788.7 ± 1 | 1.485 ± 0.09
313.15 K, x1 = 0.2399 | 789.1 ± 1 | 1.525 ± 0.092
313.15 K, x1 = 0.3499 | 789.6 ± 1 | 1.58 ± 0.095
313.15 K, x1 = 0.4399 | 789.8 ± 1 | 1.622 ± 0.098
313.15 K, x1 = 0.56 | 789.9 ± 1 | 1.676 ± 0.1
313.15 K, x1 = 0.6515 | 789.9 ± 1 | 1.713 ± 0.1
313.15 K, x1 = 0.7385 | 789.8 ± 1 | 1.747 ± 0.11
313.15 K, x1 = 0.85 | 789.7 ± 1 | 1.786 ± 0.11
313.15 K, x1 = 0.9407 | 789.5 ± 1 | 1.814 ± 0.11
313.15 K, x1 = 1 | 789.2 ± 1 | 1.828 ± 0.11
318.15 K, x1 = 0.0818 | 784 ± 1 | 1.293 ± 0.078
318.15 K, x1 = 0.1601 | 784.6 ± 1 | 1.326 ± 0.08
318.15 K, x1 = 0.2399 | 785.1 ± 1 | 1.358 ± 0.082
318.15 K, x1 = 0.3499 | 785.5 ± 1 | 1.398 ± 0.085
318.15 K, x1 = 0.4399 | 785.7 ± 1 | 1.429 ± 0.086
318.15 K, x1 = 0.56 | 785.8 ± 1 | 1.467 ± 0.089
318.15 K, x1 = 0.6515 | 785.7 ± 1 | 1.493 ± 0.09
318.15 K, x1 = 0.7385 | 785.6 ± 1 | 1.516 ± 0.092
318.15 K, x1 = 0.85 | 785.3 ± 1 | 1.54 ± 0.093
318.15 K, x1 = 0.9407 | 785.1 ± 1 | 1.555 ± 0.094
318.15 K, x1 = 1 | 784.7 ± 1 | 1.559 ± 0.094
323.15 K, x1 = 0.0818 | 779.9 ± 1 | 1.16 ± 0.07
323.15 K, x1 = 0.1601 | 780.5 ± 1 | 1.185 ± 0.072
323.15 K, x1 = 0.2399 | 781 ± 1 | 1.209 ± 0.073
323.15 K, x1 = 0.3499 | 781.4 ± 1 | 1.24 ± 0.075
323.15 K, x1 = 0.4399 | 781.5 ± 1 | 1.263 ± 0.076
323.15 K, x1 = 0.56 | 781.5 ± 1 | 1.29 ± 0.078
323.15 K, x1 = 0.6515 | 781.4 ± 1 | 1.308 ± 0.079
323.15 K, x1 = 0.7385 | 781.3 ± 1 | 1.322 ± 0.08
323.15 K, x1 = 0.85 | 781 ± 1 | 1.336 ± 0.081
323.15 K, x1 = 0.9407 | 780.6 ± 1 | 1.341 ± 0.081
323.15 K, x1 = 1 | 780.2 ± 1 | 1.318 ± 0.08
